Entries after “also recorded” stand apart in the source; their conditions may differ.
Experiments:
Assay type in all cases: cell-based
CD19 CAR NK cells = assay: Standard 4-hour 51Cr cytotoxicity assay, bystander killing; settings: for more bystander cells lysed compared to DMSO: wildtype Daoy bystanders, Daoy-CD19 inciting targets
Method: FIG. 22. Bystander killing with increasing amounts of ciliobrevin D in the presence of CD19 CAR-bearing NK cells. Standard 4-hour ^51Cr cytotoxicity assay of CD19 CAR NK cells treated with ciliobrevin D (12.5, 25, and 50 μM) or DMSO control. Daoy-CD19 cells were used as inciting target cells to activate CD19 CAR-bearing NK cells. Wildtype Daoy cells were used as innocent bystander cells to measure the degree of collateral damage caused by non-directional degranulation.
(§1) Similarly, compared to DMSO, ciliobrevin D-treated CD19 CAR NK cells lyse approximately 24%, 39% and 40% more bystander cells at the concentration of 12.5, 25 and 50 μM, respectively (FIG. 22). […] FIG. 23 and FIG. 24 are time-lapse images of videos of control ([…]) and ciliobrevin D-treated ([…]) CD19 CAR T cells. […] In the control group, however, lytic granules converge immediately upon interacting with the target cell and remain tightly clustered until target is killed by the CD19 CAR T cell as indicated by uptake of the SYTOX Blue viability dye.

GD2 CAR-bearing T cells = assay: Flow cytometry-based cytotoxicity assay, 48 h, bystander killing; settings: ciliobrevin D 90 μM, vs DMSO
Method: FIG. 23. Bystander killing with ciliobrevin D in the presence of GD2 CAR-bearing T cells. Flow cytometry-based cytotoxicity assay of GD2 CAR-bearing T cells treated with ciliobrevin D (90 μM) or DMSO control. BV173 cells were used as non-susceptible bystander cells to measure the degree of non-specific killing (Left). Daoy-CD19 cells were used as activating target cells (Right). After 48 h incubation, percent cell lysis and total cell number were measured using SYTOX Blue viability dye and flow cytometer cell counting beads, respectively. […] The non-specific lysis of BV173 cells increased after ciliobrevin D treatment while specific lysis of Daoy-CD19 cells was not affected.
as §1

CD19 CAR T cell = assay: Live cell confocal microscopy of CD19 CAR T cell conjugated with a Daoy-CD19 target cell
Method: FIG. 25. […] Live cell confocal microscopy of a ciliobrevin D-treated CD19 CAR T cell conjugated with a Daoy-CD19 target cell. Cell mixtures were imaged every 90 sec for 60 min. Time point 1 (T1) represents the time when imaging started. Target cell death occurred rapidly at T5 (7.5 min) as indicated by uptake of SYTOX Blue viability dye and loss of adherence. […] Red, LysoTracker Red (lytic granules); blue, SYTOX Blue viability dye; green, CD19 CAR.
as §1

CD19 CAR-bearing T cells = assay: Live cell confocal microscopy of lytic granule positioning (LysoTracker Red); settings: for stimulation-induced lytic granule convergence: ciliobrevin D 50 μM vs DMSO, straight out of culture or 0.5 h post cytokine (IL-7, IL-15) re-addition
Method: (§2) FIG. 17. […] Live cell confocal microscopy of CD19 CAR-bearing T cells untreated or treated with ciliobrevin D (30 and 100 μM). Lytic granule positioning was tracked using LysoTracker Red. […] Quantitative analyses of lytic granule distance from the MTOC are shown as a feature of the degree of granule convergence in CD19 CAR-bearing T cells.
as §2, with “18.” for “17.”, “cells” for “cells untreated or”, “with DMSO or” for “with”, “(50” for “(30 and 100”, “Red. […] The culture medium for CD19 CAR T cells contains IL-7 and IL-15.” for “Red.”
Specifically, the inventors have shown convergence in CD19 CAR T cells, CD19 CAR NK cells, PSCA CAR T cells, GD2 CAR NKT cells, HER2 CART cells, and glypican CAR T cells (FIG. 15A). Using a measurement of mean granule distance from the MTOC, CAR cells have varying degrees of converged lytic granules (FIG. 15B).

CD19 CAR T cells = assay: Standard 4-hour 51Cr cytotoxicity assay, bystander killing; settings: for increase of bystander killing compared to DMSO control: 10:1 effector to target ratio, BV173 bystanders, Daoy-CD19 inciting targets, representative donor
Method: FIG. 21. Bystander killing with increasing amounts of ciliobrevin D in the presence of CD19 CAR-bearing T cells. Standard 4-hour ^51Cr cytotoxicity assay of CD19 CAR T cells treated with ciliobrevin D (25, 50 and 100 μM) or DMSO control. CD19-expressing Daoy cells (Daoy-CD19, a medulloblastoma cell line engineered to express CD19) were used as inciting target cells to trigger the activation of CD19 CAR-bearing T cells. BV173 cells, a human acute lymphoblastic leukemia cell line, were used as non-susceptible bystander cells to measure the degree of collateral damage caused by non-directional degranulation.
as §1

N#CC(C(=O)c1ccc(Cl)cc1Cl)=C1NC(=O)c2ccc(Cl)cc2N1 [ciliobrevin D, 2-(7-chloro-4-oxo-3,4-dihydroquinazolin-2(1H)-ylidene)-3-(2,4-dichlorophenyl)-3-oxopropanenitrile]
more bystander cells lysed compared to DMSO (CD19 CAR NK cells; 12.5 μM): approximately 24% | more bystander cells lysed compared to DMSO (CD19 CAR NK cells; 25 μM): ~39% | more bystander cells lysed compared to DMSO (CD19 CAR NK cells; 50 μM): ~40% | non-specific lysis of Daoy cells (CD19 CAR NK cells; 12.5, 25 and 50 μM vs DMSO): dose-dependent increases | specific lysis of Daoy-CD19 target cells (GD2 CAR-bearing T cells; 48 h incubation): remains similar to the DMSO control; also recorded: not affected | decrease of total number of BV173 (bystander) cells (GD2 CAR-bearing T cells; after 48 h incubation): ~20% | total number of Daoy-CD19 (target) cells (GD2 CAR-bearing T cells; after 48 h incubation): does not change; also recorded: remained similar to the DMSO control | time of target cell death (SYTOX Blue uptake, loss of adherence) (CD19 CAR T cell; ciliobrevin D-treated CD19 CAR T cell, Daoy-CD19 target): 7.5 min | lytic granule positioning during conjugation and killing (CD19 CAR T cell; ciliobrevin D-treated, imaged every 90 sec for 60 min): dispersedly localized lytic granules throughout the video; also recorded: remained dispersed throughout the video | stimulation-induced lytic granule convergence (CD19 CAR-bearing T cells): blocks stimulation-induced convergence | stimulation-induced lytic granule convergence (CD19 CAR-bearing T cells; listed as Ciliobrevin D): dispersed lytic granules | lytic granule positioning (granule distance from the MTOC) (CD19 CAR-bearing T cells; ciliobrevin D 30 and 100 μM vs untreated): can disperse lytic granules; also recorded: dispersed lytic granules | increase of bystander killing compared to DMSO control (CD19 CAR T cells; 25 μM): approximately 48% | increase of bystander killing compared to DMSO control (CD19 CAR T cells; 50 μM): ~71% | increase of bystander killing compared to DMSO control (CD19 CAR T cells; 100 μM): ~90% | non-specific lysis of BV173 cells (CD19 CAR T cells; 25, 50 and 100 μM, each effector to target ratio, vs DMSO): dose-dependent increases
